Laboratory results taken from ChEMBL document CHEMBL1201861, “Genomics of Drug Sensitity in Cancer screening data, Wellcome Trust Sanger Institute”.

Experiments:
SW1088 = test: cells; assay type: functional, cell-based; settings: Homo sapiens;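 note: growth inhibition of human SW1088 cells, read out by a cell viability assay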
Description: SANGER: Inhibition of human SW1088 cell growth in a cell viability assay.

VMRC-RCZ = test: cells; assay type: functional, cell-based; settings: Homo sapiens
Description: SANGER: Inhibition of human VMRC-RCZ cell growth in a cell viability assay.

ME-180 = test: cells; assay type: functional, cell-based; settings: Homo sapiens;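 note: cell viability assay measuring growth inhibition of ME-180 cells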
Description: SANGER: Inhibition of human ME-180 cell growth in a cell viability assay.

5637 = test: cells; assay type: functional, cell-based; settings: Homo sapiens
Description: SANGER: Inhibition of human 5637 cell growth in a cell viability assay.

NB17 = test: cells; assay type: functional, cell-based, Homo sapiens; settings: Homo sapiens, NB17;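 note: growth inhibition of NB17 cells, read out with a cell viability assay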
Description: SANGER: Inhibition of human NB17 cell growth in a cell viability assay.

Detroit 562 = test: cells; assay type: functional, cell-based; settings: Homo sapiens;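 note: growth inhibition of human Detroit 562 cells, read out by a cell viability assay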
Description: SANGER: Inhibition of human Detroit562 cell growth in a cell viability assay.

Ca9-22 = test: cells; assay type: functional, cell-based; settings: Homo sapiens;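 note: growth inhibition of Ca9-22 cells, read out with a cell viability assay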
Description: SANGER: Inhibition of human Ca9-22 cell growth in a cell viability assay.

NCI-H2347 = test: cells; assay type: functional, cell-based; settings: Homo sapiens;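 note: growth inhibition of the cell line, read out with a cell viability assay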
Description: SANGER: Inhibition of human NCI-H2347 cell growth in a cell viability assay.

YKG-1 = test: cells; assay type: functional, cell-based; settings: Homo sapiens;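 note: cell growth inhibition, read out with a viability assay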
Description: SANGER: Inhibition of human YKG-1 cell growth in a cell viability assay.

A2780 = test: cells; assay type: functional, cell-based; settings: Homo sapiens;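 note: growth inhibition of A2780 cells, read out with a cell viability assay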
Description: SANGER: Inhibition of human A2780 cell growth in a cell viability assay.

MC-IXC = test: cells; assay type: functional, cell-based; settings: Homo sapiens;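 note: growth inhibition of MC-IXC cells, read out with a cell viability assay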
Description: SANGER: Inhibition of human MC-IXC cell growth in a cell viability assay.

NCI-H810 = test: cells; assay type: functional, cell-based; settings: Homo sapiens;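 note: IC50 reflects inhibition of cancer cell line growth, read out with a cell viability assay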
Description: SANGER: Inhibition of human NCI-H810 cell growth in a cell viability assay.

DMS-273 = test: cells; assay type: functional, cell-based; settings: Homo sapiens
Description: SANGER: Inhibition of human DMS-273 cell growth in a cell viability assay.

SW837 = test: cells; assay type: functional, cell-based; settings: Homo sapiens;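 note: growth inhibition of SW837 cells, determined with a cell viability assay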
Description: SANGER: Inhibition of human SW837 cell growth in a cell viability assay.

CAL-27 = test: cells; assay type: functional, cell-based; settings: Homo sapiens;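 note: Viability-based readout, IC50 reflecting inhibition of CAL-27 cell growth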
Description: SANGER: Inhibition of human CAL-27 cell growth in a cell viability assay.

J82 = test: cells; assay type: functional, cell-based; settings: Homo sapiens;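 note: growth inhibition of J82 cells, read out with a cell viability assay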
Description: SANGER: Inhibition of human J82 cell growth in a cell viability assay.

COR-L105 = test: cells; assay type: functional, cell-based; settings: Homo sapiens
Description: SANGER: Inhibition of human COR-L105 cell growth in a cell viability assay.

639-V = test: cells; assay type: functional, cell-based; settings: Homo sapiens;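 note: growth inhibition of 639-V cells, read out with a cell viability assay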
Description: SANGER: Inhibition of human 639-V cell growth in a cell viability assay.

HT-29 = test: cells; assay type: functional, cell-based; settings: Homo sapiens;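 note: growth inhibition of human HT-29 cells, read out by a cell viability assay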
Description: SANGER: Inhibition of human HT-29 cell growth in a cell viability assay.

ACHN = test: cells; assay type: functional, cell-based; settings: Homo sapiens;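 note: cell viability read-out used to gauge how strongly growth of human ACHN cells is suppressed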
Description: SANGER: Inhibition of human ACHN cell growth in a cell viability assay.

HCC 2998 = test: cells; assay type: functional, cell-based; settings: Homo sapiens;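 note: growth inhibition of human HCC2998 cells, measured with a cell viability read-out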
Description: SANGER: Inhibition of human HCC2998 cell growth in a cell viability assay.

SW1990 = test: cells; assay type: functional, cell-based; settings: Homo sapiens
Description: SANGER: Inhibition of human SW1990 cell growth in a cell viability assay.

HCC1395 = test: cells; assay type: functional, cell-based; settings: Homo sapiens;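 note: growth inhibition of HCC1395 cells, read out by a cell viability assay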
Description: SANGER: Inhibition of human HCC1395 cell growth in a cell viability assay.

SK-N-AS = test: cells; assay type: functional, cell-based; settings: Homo sapiens;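 note: growth inhibition of human SK-N-AS cells, measured with a cell viability assay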
Description: SANGER: Inhibition of human SK-N-AS cell growth in a cell viability assay.

Panc1005 = test: cells; assay type: functional, cell-based; settings: Homo sapiens;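 note: growth inhibition of human PANC-10-05 cells, measured by a cell viability assay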
Description: SANGER: Inhibition of human PANC-10-05 cell growth in a cell viability assay.

HuP-T3 = test: cells; assay type: functional, cell-based; settings: Homo sapiens;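 note: HuP-T3 cell growth inhibition, read out with a cell viability assay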
Description: SANGER: Inhibition of human HuP-T3 cell growth in a cell viability assay.

PA-1 = test: cells; assay type: functional, cell-based; settings: Homo sapiens;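 note: IC50 for suppression of PA-1 cell proliferation, determined with a cell viability read-out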
Description: SANGER: Inhibition of human PA-1 cell growth in a cell viability assay.

NCI-H650 = test: cells; assay type: functional, cell-based; settings: Homo sapiens;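 note: growth inhibition of NCI-H650 cells, read out by a viability assay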
Description: SANGER: Inhibition of human NCI-H650 cell growth in a cell viability assay.

ABC-1 = test: cells; assay type: functional, cell-based; settings: Homo sapiens;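 note: growth inhibition of human ABC-1 cells, read out by a cell viability assay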
Description: SANGER: Inhibition of human ABC-1 cell growth in a cell viability assay.

SAS = test: cells; assay type: functional, cell-based; settings: Homo sapiens;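 note: growth inhibition of SAS cells, read out with a cell viability assay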
Description: SANGER: Inhibition of human SAS cell growth in a cell viability assay.

MDA-MB-157 = test: cells; assay type: functional, cell-based; settings: Homo sapiens
Description: SANGER: Inhibition of human MDA-MB-157 cell growth in a cell viability assay.

A 172 = test: cells; assay type: functional, cell-based; settings: Homo sapiens;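 note: growth inhibition of A172 cells, measured with a cell viability readout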
Description: SANGER: Inhibition of human A172 cell growth in a cell viability assay.

NCI-H630 = test: cells; assay type: functional, cell-based; settings: Homo sapiens;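 note: growth inhibition of NCI-H630 cells, read out with a cell viability assay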
Description: SANGER: Inhibition of human NCI-H630 cell growth in a cell viability assay.

S-117 = test: cells; assay type: functional, cell-based; settings: Homo sapiens
Description: SANGER: Inhibition of human S-117 cell growth in a cell viability assay.

DOK = test: cells; assay type: functional, cell-based; settings: Homo sapiens;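 note: cell viability assay read-out, values reflect inhibition of cell growth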
Description: SANGER: Inhibition of human DOK cell growth in a cell viability assay.

UMUC3 = test: cells; assay type: functional, cell-based; settings: Homo sapiens;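 note: growth inhibition of human UM-UC-3 cells, read out with a cell viability assay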
Description: SANGER: Inhibition of human UM-UC-3 cell growth in a cell viability assay.

SF-295 = test: cells; assay type: functional, cell-based; settings: Homo sapiens;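 note: growth inhibition of SF-295 cells, read out with a cell viability assay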
Description: SANGER: Inhibition of human SF295 cell growth in a cell viability assay.

MDA-MB-415 = test: cells; assay type: functional, cell-based; settings: Homo sapiens
CESS = test: SANGER: Inhibition of human CESS cell growth in a cell viability assay.; assay type: functional, cell-based; settings: Homo sapiens, CESS
ST486 = test: SANGER: Inhibition of human ST486 cell growth in a cell viability assay.; assay type: functional, cell-based; settings: Homo sapiens, ST486

Row | Compound | IC50 (SW1088) [nM] | IC50 (VMRC-RCZ) [nM] | IC50 (ME-180) [nM] | IC50 5637 [nM] | IC50 (NB17) [µM] | IC50 (Detroit 562) [µM] | IC50 (Ca9-22) [nM] | IC50 (NCI-H2347) [µM] | IC50 (YKG-1) [nM] | IC50 (A2780) [µM] | IC50 (MC-IXC) [nM] | IC50 (NCI-H810) [µM] | IC50 (DMS-273) [nM] | IC50 (CAL-27) [µM] | IC50 (COR-L105) [nM] | IC50 (639-V) [nM] | IC50 (HT-29) [µM] | IC50 (HCC1395) [nM] | IC50 (HuP-T3) [µM] | IC50 (NCI-H630) [µM] | also measured
1 | O=C1NC(=O)c2c1c(-c1ccccc1Cl)cc1[nH]c3ccc(O)cc3c21 | > 2000 | > 2000 | > 2000 | > 2000 | > 2 | > 2 | > 2000 | > 2 | > 2000 | > 2 | > 2000 | > 2 | > 2000 | > 2 | > 2000 | > 2000 | > 2 | > 2000 | > 2 | 1.93 | IC50 (SW837): > 2 µM; IC50 (J82): > 2000 nM; IC50 (ACHN): 542 nM; IC50 (HCC 2998): > 2 µM; IC50 (SW1990): 1.18 µM; IC50 (SK-N-AS): 1.81 µM; IC50 (Panc1005): > 2 µM; IC50 (PA-1): > 2000 nM; IC50 (NCI-H650): > 2 µM; IC50 (ABC-1): > 2 µM; IC50 (SAS): > 2 µM; IC50 (MDA-MB-157): > 2000 nM; IC50 (A 172): > 2 µM; IC50 (S-117): > 2 µM; IC50 (DOK): 1240 nM; IC50 (UMUC3): > 2 µM
2 | O=C(NCCCNc1nc(Nc2cccc(NC(=O)N3CCCC3)c2)ncc1I)c1cccs1 [BX-795] | 2000 | 2770 | 3390 | > 5000 | > 5 | 3.89 | 2130 | 4.92 | 1770 | > 5 | 2900 | 3.9 | > 5000 | > 5 | > 5000 | > 5000 | > 5 | > 5000 | > 5 | > 5 | IC50 (SW837): > 5 µM; IC50 (J82): > 5000 nM; IC50 (ACHN): > 5000 nM; IC50 (HCC 2998): > 5 µM; IC50 (SW1990): > 5 µM; IC50 (SK-N-AS): > 5 µM; IC50 (Panc1005): > 5 µM; IC50 (PA-1): 804 nM; IC50 (NCI-H650): 3.4 µM; IC50 (ABC-1): 4.81 µM; IC50 (SAS): > 5 µM; IC50 (MDA-MB-157): 1720 nM; IC50 (A 172): 4.45 µM; IC50 (SF-295): 4180 nM; IC50 (MDA-MB-415): > 5000 nM; IC50 (S-117): > 5 µM; IC50 (DOK): 4360 nM; IC50 (UMUC3): > 5 µM
3 | CO[C@@H]1[C@H](N(C)C(=O)c2ccccc2)C[C@H]2O[C@]1(C)n1c3ccccc3c3c4c(c5c6ccccc6n2c5c31)C(=O)NC4 [MIDOSTAURIN] |  |  |  | > 512 |  |  |  |  |  |  | 266 | 0.21 | 324 |  |  |  |  | 84.3 | > 0.512 | > 0.512 | IC50 (CESS): > 512 nM; IC50 (J82): > 512 nM; IC50 (ACHN): 331 nM; IC50 (SF-295): 273 nM; IC50 (ST486): 349 nM
4 | NC1(c2ccc(-c3nc4ccn5c(=O)[nH]nc5c4cc3-c3ccccc3)cc2)CCC1 [MK-2206] | 1950 | > 4000 | 1570 | > 4000 | > 4 | > 4 | > 4000 | > 4 | > 4000 | > 4 | > 4000 | > 4 | 1520 | > 4 | 1800 | > 4000 | > 4 | 2750 | > 4 | > 4 | IC50 (HCC 2998): > 4 µM; IC50 (SW1990): > 4 µM; IC50 (SK-N-AS): > 4 µM; IC50 (Panc1005): > 4 µM; IC50 (PA-1): 1350 nM; IC50 (NCI-H650): > 4 µM; IC50 (ABC-1): 2.33 µM; IC50 (SAS): > 4 µM; IC50 (MDA-MB-157): > 4000 nM; IC50 (SF-295): > 4000 nM; IC50 (MDA-MB-415): 636 nM; IC50 (S-117): > 4 µM; IC50 (DOK): 3230 nM
5 | CC1(C)CCC(c2ccc(Cl)cc2)=C(CN2CCN(c3ccc(C(=O)NS(=O)(=O)c4ccc(N[C@H](CCN5CCOCC5)CSc5ccccc5)c(S(=O)(=O)C(F)(F)F)c4)cc3)CC2)C1 [NAVITOCLAX] | > 2000 | > 2000 | > 2000 | > 2000 | 0.0712 | > 2 | > 2000 | > 2 | > 2000 | > 2 | > 2000 | > 2 | > 2000 | > 2 | > 2000 | > 2000 | > 2 | > 2000 | > 2 | > 2 | IC50 (SW837): > 2 µM; IC50 (J82): > 2000 nM; IC50 (ACHN): > 2000 nM; IC50 (HCC 2998): 1.07 µM; IC50 (SW1990): > 2 µM; IC50 (SK-N-AS): > 2 µM; IC50 (Panc1005): > 2 µM; IC50 (PA-1): 956 nM; IC50 (NCI-H650): > 2 µM; IC50 (ABC-1): > 2 µM; IC50 (SAS): > 2 µM; IC50 (MDA-MB-157): > 2000 nM; IC50 (A 172): > 2 µM; IC50 (SF-295): > 2000 nM; IC50 (MDA-MB-415): 1390 nM; IC50 (S-117): > 2 µM; IC50 (DOK): > 2000 nM; IC50 (UMUC3): > 2 µM
6 | CS(=O)(=O)N1CCN(Cc2cc3nc(-c4cccc5[nH]ncc45)nc(N4CCOCC4)c3s2)CC1 [PICTILISIB] | 2490 | > 4000 | 1930 | 2710 | > 4 | > 4 | > 4000 | > 4 | 3040 | > 4 | > 4000 | > 4 | 2860 | > 4 | > 4000 | 1500 | > 4 | > 4000 | > 4 | > 4 | IC50 (SW837): > 4 µM; IC50 (J82): > 4000 nM; IC50 (ACHN): > 4000 nM; IC50 (HCC 2998): > 4 µM; IC50 (SW1990): > 4 µM; IC50 (SK-N-AS): > 4 µM; IC50 (Panc1005): > 4 µM; IC50 (PA-1): 532 nM; IC50 (NCI-H650): > 4 µM; IC50 (ABC-1): > 4 µM; IC50 (SAS): > 4 µM; IC50 (MDA-MB-157): 2820 nM; IC50 (SF-295): 2320 nM; IC50 (MDA-MB-415): 1490 nM; IC50 (S-117): > 4 µM; IC50 (DOK): 302 nM; IC50 (UMUC3): > 4 µM
7 | CN(C)CCOc1ccc(-c2nc(-c3ccncc3)c(-c3ccc4c(c3)CC/C4=N\O)[nH]2)cc1 [SB590885] | > 5000 | > 5000 | > 5000 | > 5000 | > 5 | > 5 | > 5000 | > 5 | > 5000 | > 5 | > 5000 | > 5 | > 5000 | > 5 | > 5000 | > 5000 | > 5 | > 5000 | > 5 | > 5 | IC50 (HCC 2998): > 5 µM; IC50 (SW1990): > 5 µM; IC50 (SK-N-AS): > 5 µM; IC50 (Panc1005): > 5 µM; IC50 (PA-1): > 5000 nM; IC50 (NCI-H650): > 5 µM; IC50 (ABC-1): > 5 µM; IC50 (SAS): > 5 µM; IC50 (MDA-MB-157): > 5000 nM; IC50 (SF-295): > 5000 nM; IC50 (MDA-MB-415): > 5000 nM; IC50 (S-117): > 5 µM; IC50 (DOK): > 5000 nM
